Experimental data taken from patent US20250332119A1, “NOVEL ANTI-INFLAMMATORY COMPOSITION AND USE THEREOF” (ASK CO., LTD., priority 2023, published 2025).

What was measured:
[1] = test system: TNF-α, IL-6, IL-1B, and NOS2; settings: Food Funct. 2017; 8 (11): 4150-4158; cited from earlier work
IL-1α = IL-1α mRNA expression by Realtime qRT-PCR in LPS-induced macrophages; assay type: cell-based, mouse; settings: RAW264.7, LPS 24 hours
Method: (§1) To evaluate the inhibitory ability against inflammatory cytokines induced by LPS (lipopolysaccharide), mouse macrophages were used to assess the effect on the production of IL-1α and TNF-α, which are the early-stage inflammatory molecules. The cells used in the experiment were RAW264.7 (Mouse macrophage), which were cultured at 37° C. under 5% CO2 in Dulbecco's modified Eagle's medium (DMEM, Invitrogen) supplemented with 10% fetal bovine serum (FBS, Lonza) and 50 μg/mL streptomycin (Sigma).
(§2) Specifically, the cells were seeded into 6-well plates at a density of 1×10^6 cells/well and cultured at 37° C. in a 5% CO2 incubator for 24 hours. After removing the culture medium, the cells were replaced with fresh medium containing the sample and pre-incubated at 37° C. under 5% CO2 for 30 minutes. Following pretreatment with the sample for 30 minutes, the cells were exposed with LPS for 24 hours to induce an inflammatory response. As a control, cells treated with LPS alone, without sample treatment, were used.
(§3) Total RNA in cells was then extracted from cultured cells using Trizol reagent (Invitrogen, USA) for RNA analysis. The purity and integrity of the RNA were confirmed by measuring the A260 nm/A280 nm ratio, and RNA yield was measured by absorbance at 260 nm.
(§4) For cDNA synthesis, 3 μg of total RNA was mixed with Oligo dT 15 (500 ng/μL) primer, dNTP (10 mM), RTase inhibitor (40 U/μL), and Powerscript II RTase (Clontech, USA), followed by primer annealing at 25° C. for 10 minutes, cDNA synthesis at 42° C. for 60 minutes, and RTase denaturation at 95° C. for 5 minutes. PCR was performed to amplify IL-1α, TNF-α, and GAPDH from cDNA by mixing 3 μL of cDNA, 5 μL of 10×taq polymerase buffer, 2 μL of 10 mM dNTP, 2 μL each of 10 pmol primers, and 0.5 μL of taq polymerase, followed by the addition of distilled water to a final volume of 50 μL.
(§5) The primer sequences used are shown in Table 1, and the PCR process was carried out using the Real-time qRT PCR method with the LightCycler® 96 System (Roche Diagnostics).

[2] = test system: RAW264.7 (mouse macrophage); test: NO production in LPS-induced mouse macrophages (Griess reagent); assay type: cell-based; settings: RAW264.7, LPS 1 μg/mL, 24 hours, sample pretreatment 30 minutes, non-cytotoxic concentration range
Method: (§6) To evaluate the inhibitory ability against nitric oxide and PGE2 production induced by LPS (lipopolysaccharide), mouse macrophages were used to assess the effect on the production of nitric oxide (NO) and prostaglandin E2 (PGE2). The cells used in the experiment were RAW264.7 (mouse macrophage), which were cultured in Dulbecco's modified Eagle's medium (DMEM, Invitrogen) supplemented with 10% fetal bovine serum (FBS, Lonza) and 50 μg/mL streptomycin (Sigma) at 37° C. in 5% CO2.
Specifically, the cells were seeded into 96-well plates at a density of 1× 10^5 cells/well and incubated at 37° C. in a 5% CO2 incubator for 24 hours. The culture medium was removed from the cultured cells, and the medium was replaced with a fresh medium containing the test sample and the cells pre-incubated at 37° C. under 5% CO2 for 30 minutes. Following the 30-minute incubation, LPS was added to a final concentration of 1 μg/mL, and the cells were incubated at 37° C. in a 5% CO2 incubator for 24 hours. After incubation, 100 μL of the supernatant was transferred to a new 96-well plate and mixed with an equal volume of a 1:1 mixture of Griess reagent A and B, then 100 μL aliquot of the resulting mixture was dispensed into each well. Immediately after treatment with Griess reagent, absorbance was measured at 540 nm using a microplate reader. The NO production rate (%) of macrophages was calculated using Equation 1 below.

macrophages = settings: Food Funct. 2017; 8 (11): 4150-4158; cited from earlier work
[3] = test system: RAW264.7 (mouse macrophage); test: PGE2 production in LPS-induced mouse macrophages (ELISA); assay type: cell-based; settings: RAW264.7, LPS, 24 hours
Method: as §6
In addition, to evaluate the production of PGE2, a procedure similar to that described above was followed. The procedures for treating the cells with the sample and LPS after cell culture were identical. Subsequently, 100 μL aliquots of the supernatant were collected and transferred to a new 96-well plate, and diluted 10- to 20-fold with culture medium. In the NSB (Non-specific binding) wells of the Anti-Mouse IgG plate, 100 μL of culture medium was added. Then, 100 μL each of the standard and diluted supernatant were added to the respective wells, followed by 50 μL of blue PGE2-AP conjugate added to all wells except the blank well. 50 μL of culture medium was added to the NSB wells, and 50 μL of yellow PGE2 antibody was added to all wells except the blank and NSB wells. The plate was then shaken using an orbital shaker at 500 rpm for 2 hours at room temperature (22-25° C.). After 2 hours, the contents of the plate were discarded, and the wells were washed three times with 400 μL of washing buffer. Then, 200 μL of substrate solution was added to each well and the plate was incubated at room temperature (22-25° C.) for 45 minutes. After incubation, 50 μL of stop solution was added to each well, and the absorbance was immediately measured at 405 nm using a microplate reader. The PGE2 production rate (%) of macrophages was calculated using Equations 2 and 3 below.

TNF-α = TNF-α mRNA expression by Realtime qRT-PCR in LPS-induced macrophages; assay type: cell-based, mouse; settings: RAW264.7, LPS 24 hours
Method: as §1, §2, §3, §4, §5

[4] = test system: human breast carcinoma cells (MCF-7); settings: Planta Med. 2011; 77 (2): 164-8; cited from earlier work
skeletal muscle cells = settings: J Biotechnol. 2023; 368:53-59; cited from earlier work

CCCCC/C=C\C/C=C\CCCCCCCC(=O)O [Assay-5, linoleic acid]
expression of proinflammatory cytokines [1]: suppressing the expression of proinflammatory cytokines including TNF-α, IL-6, IL-1B, and NOS2
Relative IL-1α mRNA expression (IL-1α): tendency toward decreased IL-1α mRNA expression with increasing concentration
NO production [2]: relatively high NO reduction at the lowest concentrations
NO production in macrophages (macrophages): inhibiting NO production in macrophages
PGE2 production [3]: increase in PGE2 production with increasing concentration
PGE2 production ([3]; listed as linoleic acid): increased the production of the inflammatory factor PGE2 as its concentration increased
Relative TNF-α mRNA expression (TNF-α): did not inhibit TNF-α mRNA expression

C=CC(O)C#CC#CC(O)/C=C\CCCCC (centres unmarked) [Assay-10, (9Z)-1,9-pentadecadiene-4,6-diyne-3,8-diol]
growth of human breast carcinoma cells (MCF-7) [4]: inhibit the growth of human breast carcinoma cells (MCF-7)
Relative IL-1α mRNA expression (IL-1α): tendency toward decreased expression of both IL-1α and TNF-α mRNA with increasing concentration
Relative IL-1α mRNA expression (IL-1α; listed as araliadiol): relatively more reduced by araliadiol compared to linoleic acid
NO production [2]: relatively high NO reduction at the lowest concentrations
NO production ([2]; listed as araliadiol): higher NO reduction rate than linoleic acid
glucose uptake by skeletal muscle cells (skeletal muscle cells): effectively enhance glucose uptake by skeletal muscle cells
PGE2 production [3]: decrease in PGE2 production with increasing concentration
PGE2 production ([3]; listed as araliadiol): decreased PGE2 production with increasing concentration
Relative TNF-α mRNA expression (TNF-α): tendency toward decreased expression of both IL-1α and TNF-α mRNA with increasing concentration
Relative TNF-α mRNA expression (TNF-α; listed as araliadiol): relatively more reduced by araliadiol compared to linoleic acid
